Assay results taken from ChEMBL document CHEMBL5126529, “Drug discovery of histone lysine demethylases (KDMs) inhibitors (progress from 2018 to present)” (Eur J Med Chem, 2022).
Each block holds one compound with its values, some of them ahead of it.

What was measured:
MAO-A [1] = biological target: T1, MAO-A (Homo sapiens, UniProt P21397); assay: Inhibition of recombinant MAO-A (unknown origin) using luciferin substrate at 100 uM preincubated for 15 mins followed by substrate addition measured after 1 hr by luciferase based assay relative to control; conditions: probe luciferin substrate, time 75 min
T1 sequence (P21397 whole entry): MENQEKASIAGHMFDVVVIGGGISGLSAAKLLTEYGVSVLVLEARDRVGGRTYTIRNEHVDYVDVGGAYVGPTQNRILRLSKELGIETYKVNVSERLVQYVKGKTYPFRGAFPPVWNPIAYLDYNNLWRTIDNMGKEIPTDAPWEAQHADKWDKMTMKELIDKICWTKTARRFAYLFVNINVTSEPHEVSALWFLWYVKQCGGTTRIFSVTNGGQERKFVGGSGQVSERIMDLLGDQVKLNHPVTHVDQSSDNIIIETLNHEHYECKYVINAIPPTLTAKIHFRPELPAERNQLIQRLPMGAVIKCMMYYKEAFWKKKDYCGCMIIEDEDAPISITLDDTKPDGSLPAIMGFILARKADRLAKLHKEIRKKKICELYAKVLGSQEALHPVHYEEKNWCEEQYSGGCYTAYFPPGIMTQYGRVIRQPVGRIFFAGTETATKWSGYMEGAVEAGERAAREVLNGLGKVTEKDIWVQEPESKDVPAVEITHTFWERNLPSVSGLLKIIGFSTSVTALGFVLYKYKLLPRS

MAO-B [2] = biological target: T2, MAO-B (Homo sapiens, UniProt P27338); assay: Inhibition of recombinant MAO-B (unknown origin) using luciferin substrate at 100 uM preincubated for 15 mins followed by substrate addition measured after 1 hr by luciferase based assay relative to control; conditions: probe luciferin substrate, time 75 min
T2 sequence (P27338 whole entry): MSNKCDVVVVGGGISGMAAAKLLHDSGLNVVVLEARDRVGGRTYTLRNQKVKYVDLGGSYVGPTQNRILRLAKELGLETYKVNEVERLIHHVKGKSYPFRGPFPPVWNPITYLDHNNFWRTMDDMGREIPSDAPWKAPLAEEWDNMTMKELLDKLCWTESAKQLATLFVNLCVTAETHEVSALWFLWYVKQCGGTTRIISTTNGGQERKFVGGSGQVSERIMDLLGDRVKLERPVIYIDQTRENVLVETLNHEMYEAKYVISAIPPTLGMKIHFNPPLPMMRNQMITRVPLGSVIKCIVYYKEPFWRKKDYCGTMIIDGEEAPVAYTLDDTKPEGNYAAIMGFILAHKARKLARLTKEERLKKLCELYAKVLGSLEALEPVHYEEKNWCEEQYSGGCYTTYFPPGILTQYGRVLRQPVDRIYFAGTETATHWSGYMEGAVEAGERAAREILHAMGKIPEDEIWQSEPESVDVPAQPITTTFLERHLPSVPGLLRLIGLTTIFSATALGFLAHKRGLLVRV

MAO-A [3] = biological target: T1, MAO-A; assay: Inhibition of MAO-A (unknown origin) at 10 uM relative to control
MAO-B [4] = biological target: T2, MAO-B; assay: Inhibition of MAO-B (unknown origin) at 10 uM relative to control
[5] = biological target: T3, Lysine-specific histone demethylase 1A (Homo sapiens, UniProt O60341); assay: Inhibition of recombinant human KDM1A using fluorogenic substrate incubated for 30 mins followed by substrate addition measured after 10 mins by fluorescence based assay
MAO-A [6] = biological target: T1, MAO-A; assay: Inhibition of recombinant MAO-A (unknown origin) at 10 uM by luminometry relative to control
MAO-B [7] = biological target: T2, MAO-B; assay: Inhibition of recombinant MAO-B (unknown origin) at 10 uM by luminometry relative to control
[8] = biological target: T4, Amine oxidase [flavin-containing] A (Homo sapiens, UniProt P21397); assay: Inhibition of MAO-A (unknown origin) by luminescence based assay
T4 sequence (P21397 whole entry): T1 sequence (P21397 whole entry)

[9] = biological target: T5, Amine oxidase [flavin-containing] B (Homo sapiens, UniProt P27338); assay: Inhibition of MAO-B (unknown origin) by luminescence based assay
T5 sequence (P27338 whole entry): T2 sequence (P27338 whole entry)

[10] = biological target: T3, Lysine-specific histone demethylase 1A; assay: Inhibition of recombinant human KMD1A (172 to 852 residues) using Bio-H3K4me2 peptide as substrate incubated for 1 hr by Lance ultra TR-FRET assay
[11] = biological target: Probable JmjC domain-containing histone demethylation protein 2C (Homo sapiens, UniProt Q15652); assay: Binding affinity to CM7 sensor chip immobilized partial-length JMJD1C (2274 to 2498 residues) (unknown origin) expressed in Escherichia coli assessed as dissociation constant incubated for 60 secs by SPR analysis
[12] = biological target: Lysine-specific demethylase 3B (Homo sapiens, UniProt Q7LBC6); assay: Binding affinity to CM7 sensor chip immobilized full-length KDM3B (unknown origin) expressed in Sf9 insect cells assessed as dissociation constant incubated for 60 secs by SPR analysis
[13] = biological target: Lysine-specific demethylase 6B (Homo sapiens, UniProt O15054); assay: Binding affinity to KDM6B (unknown origin) assessed as inhibition constant
[14] = biological target: T6, Lysine-specific demethylase 4A (Homo sapiens, UniProt O75164); assay: Inhibition of recombinant human KDM4A incubated for 30 mins by fluorescence based assay
T6 sequence (O75164 whole entry): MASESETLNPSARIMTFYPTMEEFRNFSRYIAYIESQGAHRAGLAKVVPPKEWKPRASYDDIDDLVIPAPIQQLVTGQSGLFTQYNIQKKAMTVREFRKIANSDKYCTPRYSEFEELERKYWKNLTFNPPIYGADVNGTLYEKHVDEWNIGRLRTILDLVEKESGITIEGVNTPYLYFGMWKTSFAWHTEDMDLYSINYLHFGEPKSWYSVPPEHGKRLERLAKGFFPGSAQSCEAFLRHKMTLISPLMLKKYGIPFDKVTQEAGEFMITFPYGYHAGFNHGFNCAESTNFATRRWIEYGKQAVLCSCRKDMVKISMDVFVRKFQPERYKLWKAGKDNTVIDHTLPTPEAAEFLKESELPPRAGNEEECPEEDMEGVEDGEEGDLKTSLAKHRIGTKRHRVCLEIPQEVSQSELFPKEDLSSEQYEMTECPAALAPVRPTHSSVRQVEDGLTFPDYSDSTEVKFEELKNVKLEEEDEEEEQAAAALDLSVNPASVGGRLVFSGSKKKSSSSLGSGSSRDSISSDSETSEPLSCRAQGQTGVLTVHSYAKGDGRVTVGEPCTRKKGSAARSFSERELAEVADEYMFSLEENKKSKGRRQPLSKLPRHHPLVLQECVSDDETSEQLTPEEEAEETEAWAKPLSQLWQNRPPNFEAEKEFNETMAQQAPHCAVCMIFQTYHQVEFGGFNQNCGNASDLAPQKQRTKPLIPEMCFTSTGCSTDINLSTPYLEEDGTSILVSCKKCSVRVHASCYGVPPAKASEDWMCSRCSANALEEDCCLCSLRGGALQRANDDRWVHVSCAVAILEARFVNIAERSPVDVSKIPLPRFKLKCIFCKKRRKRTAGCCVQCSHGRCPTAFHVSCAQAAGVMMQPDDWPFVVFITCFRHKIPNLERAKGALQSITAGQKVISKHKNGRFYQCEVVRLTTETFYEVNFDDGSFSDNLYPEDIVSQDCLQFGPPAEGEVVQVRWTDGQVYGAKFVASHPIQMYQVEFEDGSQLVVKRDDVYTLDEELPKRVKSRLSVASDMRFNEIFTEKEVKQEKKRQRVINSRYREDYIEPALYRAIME

[15] = biological target: T3, Lysine-specific histone demethylase 1A
[16] = biological target: Lysine-specific demethylase 4A (Homo sapiens) (UniProt O75164); assay: Inhibition of recombinant KDM4A (unknown origin) assessed as residual activity using H3K9me3 peptide as substrate incubated for 60 mins by fluorescence based assay relative to control
[17] = biological target: T3, Lysine-specific histone demethylase 1A; assay: Inhibition of KDM1A (unknown origin) by fluorescence based assay

Lysine-specific demethylase 3B, sequence (Q7LBC6 whole entry): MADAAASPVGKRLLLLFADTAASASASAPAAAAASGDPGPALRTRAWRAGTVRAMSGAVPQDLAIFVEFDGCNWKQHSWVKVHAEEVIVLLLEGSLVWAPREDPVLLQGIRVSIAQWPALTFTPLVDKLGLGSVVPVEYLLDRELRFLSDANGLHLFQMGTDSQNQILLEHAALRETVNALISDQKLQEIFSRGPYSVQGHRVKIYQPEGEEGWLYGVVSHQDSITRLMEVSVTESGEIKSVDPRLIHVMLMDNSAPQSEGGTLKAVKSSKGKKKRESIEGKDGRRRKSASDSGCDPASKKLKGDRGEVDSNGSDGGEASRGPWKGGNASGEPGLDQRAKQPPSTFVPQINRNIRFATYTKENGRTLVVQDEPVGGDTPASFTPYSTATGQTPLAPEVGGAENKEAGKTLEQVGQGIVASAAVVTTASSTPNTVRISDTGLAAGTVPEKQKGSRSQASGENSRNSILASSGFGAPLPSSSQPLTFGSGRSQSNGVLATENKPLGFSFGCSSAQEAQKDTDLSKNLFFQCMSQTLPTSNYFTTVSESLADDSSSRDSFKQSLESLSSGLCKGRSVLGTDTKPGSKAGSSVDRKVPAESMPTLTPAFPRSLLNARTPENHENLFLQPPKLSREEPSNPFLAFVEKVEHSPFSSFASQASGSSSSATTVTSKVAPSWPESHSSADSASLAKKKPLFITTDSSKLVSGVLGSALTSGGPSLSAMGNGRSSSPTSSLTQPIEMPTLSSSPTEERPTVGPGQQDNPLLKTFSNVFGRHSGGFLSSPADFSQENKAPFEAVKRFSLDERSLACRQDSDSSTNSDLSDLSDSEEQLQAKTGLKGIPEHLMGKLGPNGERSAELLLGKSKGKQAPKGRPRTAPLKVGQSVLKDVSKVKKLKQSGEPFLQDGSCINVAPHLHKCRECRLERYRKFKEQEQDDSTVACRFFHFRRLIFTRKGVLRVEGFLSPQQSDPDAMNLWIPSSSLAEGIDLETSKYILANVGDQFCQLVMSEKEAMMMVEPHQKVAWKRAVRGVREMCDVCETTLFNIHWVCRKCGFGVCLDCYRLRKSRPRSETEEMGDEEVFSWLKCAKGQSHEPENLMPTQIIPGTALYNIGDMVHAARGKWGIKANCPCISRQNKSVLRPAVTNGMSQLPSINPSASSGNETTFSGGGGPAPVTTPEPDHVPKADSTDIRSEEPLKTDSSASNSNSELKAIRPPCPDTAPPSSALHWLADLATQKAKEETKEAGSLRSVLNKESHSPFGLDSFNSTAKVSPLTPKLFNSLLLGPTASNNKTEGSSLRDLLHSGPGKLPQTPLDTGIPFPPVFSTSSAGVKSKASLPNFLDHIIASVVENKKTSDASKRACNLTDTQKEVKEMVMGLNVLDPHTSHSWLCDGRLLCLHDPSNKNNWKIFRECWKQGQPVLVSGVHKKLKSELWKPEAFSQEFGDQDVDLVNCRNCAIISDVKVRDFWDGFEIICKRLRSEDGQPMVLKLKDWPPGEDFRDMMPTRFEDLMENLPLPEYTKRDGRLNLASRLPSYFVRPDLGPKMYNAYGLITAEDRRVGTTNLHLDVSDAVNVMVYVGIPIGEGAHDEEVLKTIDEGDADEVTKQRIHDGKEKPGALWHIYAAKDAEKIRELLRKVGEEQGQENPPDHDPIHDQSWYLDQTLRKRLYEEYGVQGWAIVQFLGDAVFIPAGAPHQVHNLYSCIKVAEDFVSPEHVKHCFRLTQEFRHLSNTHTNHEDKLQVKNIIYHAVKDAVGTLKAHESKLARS
Lysine-specific demethylase 6B, sequence (O15054 whole entry): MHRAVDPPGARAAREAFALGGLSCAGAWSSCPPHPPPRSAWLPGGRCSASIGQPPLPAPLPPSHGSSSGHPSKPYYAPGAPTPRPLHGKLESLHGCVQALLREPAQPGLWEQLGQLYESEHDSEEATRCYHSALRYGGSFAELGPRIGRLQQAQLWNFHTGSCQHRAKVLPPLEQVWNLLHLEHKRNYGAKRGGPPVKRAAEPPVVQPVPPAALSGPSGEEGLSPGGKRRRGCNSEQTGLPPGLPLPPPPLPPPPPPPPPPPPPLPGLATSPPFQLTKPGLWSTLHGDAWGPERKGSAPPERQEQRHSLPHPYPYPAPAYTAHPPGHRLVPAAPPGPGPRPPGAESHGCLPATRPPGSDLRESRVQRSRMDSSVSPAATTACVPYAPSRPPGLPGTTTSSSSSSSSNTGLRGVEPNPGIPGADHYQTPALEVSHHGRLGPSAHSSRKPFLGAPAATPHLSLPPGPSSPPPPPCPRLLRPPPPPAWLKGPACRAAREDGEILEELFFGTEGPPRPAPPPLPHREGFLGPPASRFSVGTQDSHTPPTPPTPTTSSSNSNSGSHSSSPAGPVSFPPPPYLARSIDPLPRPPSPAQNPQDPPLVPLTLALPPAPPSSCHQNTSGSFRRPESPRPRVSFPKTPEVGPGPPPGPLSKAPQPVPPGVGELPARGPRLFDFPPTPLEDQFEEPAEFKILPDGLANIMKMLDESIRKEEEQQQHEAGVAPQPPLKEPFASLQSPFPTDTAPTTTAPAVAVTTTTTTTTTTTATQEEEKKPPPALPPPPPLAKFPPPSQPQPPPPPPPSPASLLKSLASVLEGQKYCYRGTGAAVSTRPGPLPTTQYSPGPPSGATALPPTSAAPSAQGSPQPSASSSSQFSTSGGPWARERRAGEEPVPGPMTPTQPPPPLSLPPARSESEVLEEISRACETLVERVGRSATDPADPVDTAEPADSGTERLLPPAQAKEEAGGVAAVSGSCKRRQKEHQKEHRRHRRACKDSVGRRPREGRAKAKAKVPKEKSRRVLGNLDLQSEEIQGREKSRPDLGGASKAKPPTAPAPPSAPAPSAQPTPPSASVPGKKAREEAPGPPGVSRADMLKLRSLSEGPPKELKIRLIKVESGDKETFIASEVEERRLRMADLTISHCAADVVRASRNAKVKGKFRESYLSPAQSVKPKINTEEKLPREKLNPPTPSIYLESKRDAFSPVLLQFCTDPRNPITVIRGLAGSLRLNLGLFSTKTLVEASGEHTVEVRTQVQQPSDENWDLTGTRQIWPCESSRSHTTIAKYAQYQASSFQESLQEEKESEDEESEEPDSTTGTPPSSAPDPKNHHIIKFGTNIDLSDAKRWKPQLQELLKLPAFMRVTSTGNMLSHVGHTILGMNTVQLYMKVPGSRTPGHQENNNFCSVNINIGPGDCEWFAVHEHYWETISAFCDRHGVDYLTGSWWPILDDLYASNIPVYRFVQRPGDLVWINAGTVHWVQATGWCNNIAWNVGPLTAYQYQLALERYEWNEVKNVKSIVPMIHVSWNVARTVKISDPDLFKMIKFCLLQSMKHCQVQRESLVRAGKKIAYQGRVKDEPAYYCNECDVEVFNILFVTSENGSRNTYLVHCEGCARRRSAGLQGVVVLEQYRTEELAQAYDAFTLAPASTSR

SMILES: COc1ccc(-c2coc3cc(O)cc(O)c3c2=O)cc1 [BIOCHANIN]
- inhibition at 10 µM (MAO-A [3]): 23.5%
- inhibition at 10 µM (MAO-B [4]): 36.8%

SMILES: CC1(C)C(N[C@@H]2C[C@H]2c2ccccc2)CCC1N[C@@H]1C[C@H]1c1ccccc1 (stereo not given in full)
- IC50 [8]: 0.00729 µM
- IC50 [9]: 9.41 µM
- IC50 [10]: 4.8 µM

SMILES: CC(=O)Nc1ccc(S(=O)(=O)N[C@H]2CO[C@H]3[C@@H]2OC[C@@H]3Nc2nccc(-c3ccccc3)n2)cc1
- Kd [11]: 2.7 µM
- Kd [12]: 0.13 µM

SMILES: O=C(O)c1cc(O)c(=O)c2c(O)c(O)cc(-c3ccccc3)c2c1
- IC50 [14]: 24.4 µM

SMILES: O=C(O)[C@H](O)Cc1ccc(O)c(O)c1
- Ki [13]: 7.11 µM

SMILES: CCCC(=O)NC(c1ccc(N(CC)CC)cc1)c1cc(Cl)c2cccnc2c1O (stereo not given)
- IC50 [15]: 0.0039 µM

SMILES: CC(C)(C)OC(=O)NCc1cc2ccccc2[te]1
- Activity [16]: 1.79%

SMILES: O=C(/C=C/c1ccc(O)c2c1[C@H](C(=O)OC(Cc1ccc(O)c(O)c1)C(=O)O)[C@@H](c1ccc(O)c(O)c1)O2)O[C@H](Cc1ccc(O)c(O)c1)C(=O)O (stereo not given in full)
- IC50 [17]: 0.11 µM

Now from value to compound:

- inhibition at 1 h, 100 µM (MAO-A [1]): < 5%
- inhibition at 1 h, 100 µM (MAO-B [2]): < 5%
SMILES: Cc1ccc(-c2nc(SCc3cn(CC(=O)NC(=O)Nc4ccccn4)nn3)nc(Nc3cccc(C(F)(F)F)c3)c2C#N)cc1

- IC50 [5]: 0.05 µM
SMILES: Cn1c(C(=O)Nc2cccc3c2N(Cc2ccc(OC4CCNCC4)cc2)CCC3)cc2ccccc21

- inhibition at 10 µM (MAO-A [6]): 70%
- inhibition at 10 µM (MAO-B [7]): 40%
SMILES: COc1cc2c(cc1OC)-c1cc3ccc4c(c3c[n+]1CC2)OCO4

- Ki [13]: 7.46 µM
SMILES: O=c1c(-c2ccc(O)cc2)coc2c([C@@H]3O[C@H](CO[C@@H]4OC[C@@H](O)[C@H](O)[C@H]4O)[C@@H](O)[C@H](O)[C@H]3O)c(O)ccc12

- Kd [11]: 8.06 µM
- Kd [12]: 7.79 µM
SMILES: CC(=O)Nc1ccc(S(=O)(=O)N[C@H]2CO[C@H]3[C@@H]2OC[C@@H]3Nc2nccc(-c3cccc(C(C)(C)C)c3)n2)cc1
